# Data from US20220387604A1, “SELECTIVE DUAL HISTONE DEACETYLASE 6/8 (HDAC6/8) DEGRADERS AND METHODS OF USE THEREOF” (DANA-FARBER CANCER INSTITUTE, INC., priority 2019, published 2022).
# What was measured:
# CRBN = molecular target: T1, CRBN (Homo sapiens, UniProt Q96SW2); assay: Cellular CRBN engagement assay (competition with dBET6, BRD4BD2-eGFP reporter, Flip-In 293 cells); assay type: cell-based; conditions: titrated in the presence of 100 nM dBET6, 5 h, Flip-In 293 cells expressing BRD4BD2-eGFP/mCherry
# T1 construct: endogenous in cells; host or cells: Flip-In 293 cells stably expressing BRD4BD2-eGFP-P2A-mCherry
# Description: BRD4BD2 was subcloned into mammalian pcDNA5/FRT Vector (Ampicillin and Hygromycin B resistant) modified to contain MCS-eGFP-P2A-mCherry. Stable cell lines expressing eGFP-protein fusion and mCherry reporter were generated using Flip-In 293 system. Plasmid (0.3 μg) and pOG44 (4.7 μg) DNA were preincubated in 100 μL of Opti-MEM I (Gibco, Life Technologies™) media containing 0.05 mg/ml Lipofectamine 2000 (Invitrogen™) for 20 min and added to Flip-In 293 cells containing 1.9 ml of DMEM media (Gibco, Life Technologies™) per well in a 6-well plate format (Falcon, 353046). Cells were propagated after 48 h and transferred into a […] (Coming, 430165) in DMEM media containing 50 μg/ml of Hygromycin B (REF 10687010, Invitrogen™) as a selection marker. Following 2-3 passage cycles, FACS (FACSAria II, BD) was used to enrich for cells expressing eGFP and mCherry.
# Cells were seeded at 30-50% confluency in either 24, 48 or 96 well plates (3524, 3548, 3596 respectively, Costar) a day before compound treatment. The inventive compounds were titrated in the presence of 100 nM dBET6 and then were incubated with cells for 5 h following trypsinization and resuspension in DMEM media, transferred into 96-well plates (353910, Falcon) and analyzed by flow cytometer (Guava® easyCyte™ HT, Millipore). Signal from at least 3000 events per well was acquired and the eGFP and mCherry florescence monitored. Data was analyzed using FlowJo® (FlowJo®, LCC). Forward and side scatter outliers, frequently associated with cell debris, were removed leaving >90% of total cells, followed by removal of eGFP and mCherry signal outliers, leaving 88-90% of total cells creating the set used for quantification. The eGFP protein abundance relative to mCherry was then quantified as a ten-fold amplified ratio for each individual cell using the formula: 10× eGFP/mCherry. The median of the ratio was then calculated per set, normalized to the median of the DMSO ratio. […]
# [1] = system: other identified HDAC proteins; assay: Quantitative proteomics of cellular protein abundance in Kelly cells: other identified HDAC proteins; assay type: cell-based, human; conditions: 1 μM, 5 hours, compared to DMSO control
# Description: Lysis buffer (8 M Urea, 50 mM NaCl, 50 mM 4-(2hydroxyethyl)-1-piperazineethanesulfonic acid (EPPS) pH 8.5, protease and phosphatase inhibitors from Roche®) were added to the cell pellets and homogenized by 20 passes through a 21 gauge (1.25 in. long) needle to achieve a cell lysate with a protein concentration between 1-4 mg mL^−1. A micro-BCA assay (Pierce™) was used to determine the final protein concentration in the cell lysate. 200 μg of protein for each sample were reduced and alkylated as described in Donovan et al., Elife 7:e38430 (2018).
# Proteins were precipitated using methanol/chloroform. Four volumes of methanol were added to the cell lysate, followed by one volume of chloroform, and finally three volumes of water. The mixture was vortexed and centrifuged to separate the chloroform phase from the aqueous phase. The precipitated protein was washed with three volumes of methanol, centrifuged and the resulting washed precipitated protein was allowed to air dry. The precipitated protein was resuspended in 4 M Urea, 50 mM HEPES pH 7.4, followed by dilution to 1 M urea with the addition of 200 mM EPPS, pH 8. Proteins were first digested with LysC (1:50; enzyme:protein) for 12 hours at room temperature. The LysC digestion was diluted to 0.5 M Urea with 200 mM EPPS pH 8 followed by digestion with trypsin (1:50; enzyme:protein) for 6 hours at 37° C. Tandem mass tag (TMT) reagents (Thermo Fisher Scientific) were dissolved in anhydrous acetonitrile (ACN) according to manufacturer's instructions.
# Anhydrous ACN was added to each peptide sample to a final concentration of 30% v/v, and labeling was induced with the addition of TMT reagent to each sample at a ratio of 1:4 peptide:TMT label. […] The sample channels were combined at a 1:1:1:1:1:1:1:1:1:1:1 ratio, desalted using C18 solid phase extraction cartridges (Waters®) and analyzed by LC-MS for channel ratio comparison. Samples were then combined using the adjusted volumes determined in the channel ratio analysis and dried down in a speed vacuum. […]
IC50 (CRBN) [µM],SMILES,change of cellular protein levels of the other identified HDAC proteins (heat map FIG. 3) [1]
19.2,"O=C(/C=C/c1ccc(CN(CCOCCNc2cccc3c2C(=O)N(C2CCC(=O)NC2=O)C3=O)CCc2c[nH]c3ccccc23)cc1)NO (stereo not drawn) [Compound 2, (E)-3-(4-(((2-(1H-indol-3-yl)ethyl)(2-(2-((2-(2,6-dioxopiperidin-3-yl)-1,3-dioxoisoindolin-4-yl)amino)ethoxy)ethyl)amino)methyl)phenyl)-N-hydroxyacrylamide]",did not affect
10,"O=C(/C=C/c1ccc(CN(CCCCCNc2cccc3c2C(=O)N(C2CCC(=O)NC2=O)C3=O)CCc2c[nH]c3ccccc23)cc1)NO (stereo not drawn) [Compound 3, (E)-3-(4-(((2-(1H-indol-3-yl)ethyl)(5-((2-(2,6-dioxopiperidin-3-yl)-1,3-dioxoisoindolin-4-yl)amino)pentyl)amino)methyl)phenyl)-N-hydroxyacrylamide]",did not affect

SMILES,IC50 (CRBN) [µM],change of cellular protein levels of the other identified HDAC proteins (heat map FIG. 3) [1]
"O=C(/C=C/c1ccc(CN(CCOCCOCCNc2cccc3c2C(=O)N(C2CCC(=O)NC2=O)C3=O)CCc2c[nH]c3ccccc23)cc1)NO (stereo not drawn) [Compound 1, (E)-3-(4-(((2-(1H-indol-3-yl)ethyl)(2-(2-(2-((2-(2,6-dioxopiperidin-3-yl)-1,3-dioxoisoindolin-4-yl)amino)ethoxy)ethoxy)ethyl)amino)methyl)phenyl)-N-hydroxyacrylamide]",11.7,did not affect
